Assay results taken from ChEMBL document CHEMBL5505996, “Discovery of novel osthole derivatives exerting anti-inflammatory effect on DSS-induced ulcerative colitis and LPS-induced acute lung injury in mice” (Eur J Med Chem, 2024).
The source made the active and inactive calls. No cut-off for these calls is given here.

How the values were obtained:
Mus musculus [1] = assay: Antiinflammatory activity against C57BL/6 mouse model of DSS induced ulcerative colitis assessed as protection against goblet cell depletion at 20 mg/kg, po administered daily for 10 days by H and E staining based analysis; type: functional, organism-based; conditions: time 10.0 day
Mus musculus [2] = assay: Antiinflammatory activity against C57BL/6 mouse model of DSS induced ulcerative colitis assessed as protection against mucosal damage at 20 mg/kg, po administered daily for 10 days by H and E staining based analysis; type: functional, organism-based; conditions: time 10.0 day
[3] = Acute toxicity in ICR mouse assessed as pathological changes in spleen at 500 mg/kg, po measured daily for 10 days by H and E staining based analysis; type: organism-based; conditions: in vivo, 240 h, time 10 day
Mus musculus [4] = assay: Antiinflammatory activity against C57BL/6 mouse model of LPS induced acute lung injury assessed as reduction in IL-6 mRNA expression in lung at 20 mg/kg, po administered every 12 hrs for 3 times followed by LPS stimulation for 6 hrs starting from 30 mins post last dose by RT-qPCR analysis; type: functional, organism-based; conditions: time 42.5 hrs
[5] = Acute toxicity in ICR mouse assessed as effect on physiological status at 500 mg/kg, po measured daily for 10 days; type: organism-based; conditions: in vivo, 240 h, time 10 day
Mus musculus [6] = assay: Antiinflammatory activity against C57BL/6 mouse model of DSS induced ulcerative colitis assessed as reversal of weight loss at 20 mg/kg, po administered daily for 10 days; type: functional, organism-based; conditions: time 10.0 day
[7] = target: Interleukin-1 receptor-associated kinase 1 (Homo sapiens) (UniProt P51617); assay: Inhibition of IRAK1 (unknown origin) at 10 uM relative to control
Sequence of Interleukin-1 receptor-associated kinase 1 (Homo sapiens) (P51617 whole entry, looked up): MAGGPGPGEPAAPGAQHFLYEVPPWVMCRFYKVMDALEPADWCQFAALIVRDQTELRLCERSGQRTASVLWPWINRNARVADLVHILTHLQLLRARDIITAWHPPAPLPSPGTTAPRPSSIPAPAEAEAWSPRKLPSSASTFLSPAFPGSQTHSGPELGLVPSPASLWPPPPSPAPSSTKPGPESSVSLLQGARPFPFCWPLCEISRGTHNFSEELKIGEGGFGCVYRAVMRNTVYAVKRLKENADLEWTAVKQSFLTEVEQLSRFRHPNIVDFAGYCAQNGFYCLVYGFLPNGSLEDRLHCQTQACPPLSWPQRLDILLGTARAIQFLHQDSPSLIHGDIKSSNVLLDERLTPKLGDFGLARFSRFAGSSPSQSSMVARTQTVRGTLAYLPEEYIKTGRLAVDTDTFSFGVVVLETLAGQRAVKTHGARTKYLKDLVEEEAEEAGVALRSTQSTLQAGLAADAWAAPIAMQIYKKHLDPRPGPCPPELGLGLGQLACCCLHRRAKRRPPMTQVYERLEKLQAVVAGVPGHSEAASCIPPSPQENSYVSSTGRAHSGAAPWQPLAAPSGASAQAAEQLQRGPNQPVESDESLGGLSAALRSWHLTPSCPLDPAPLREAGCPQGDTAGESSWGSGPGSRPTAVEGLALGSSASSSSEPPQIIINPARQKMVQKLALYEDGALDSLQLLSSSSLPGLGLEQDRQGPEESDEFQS

RAW264.7 [8] = assay: Potency index, ratio of osthole IC50 to test compound IC50 for antiinflammatory activity against LPS-induced mouse RAW264.7 cells assessed as inhibition of IL-6 release pretreated for 30 mins followed by LPS stimulation and measured after 24 hrs by ELISA; type: functional; conditions: time 24.5 hrs
Mus musculus [9] = assay: Antiinflammatory activity against C57BL/6 mouse model of LPS induced acute lung injury assessed as reduction in total number of cells in BALF at 20 mg/kg, po administered every 12 hrs for 3 times followed by LPS stimulation for 6 hrs starting from 30 mins post last dose; type: functional, organism-based; conditions: time 42.5 hrs
RAW264.7 [10] = assay: Potency index, ratio of osthole IC50 to test compound IC50 for antiinflammatory activity against LPS-induced mouse RAW264.7 cells assessed as inhibition of TNF-alpha release pretreated for 30 mins followed by LPS stimulation and measured after 24 hrs by ELISA; type: functional; conditions: time 24.5 hrs
J774.A1 [11] = assay: Inhibition of MAPK signaling pathway in LPS-stimulated mouse J774.A1 cells assessed as reduction in JNK phosphorylation at 10 uM pretreated for 2 hrs followed by LPS stimulation and measured after 30 mins by Western blot analysis; type: cell-based; conditions: time 2.5 hrs
J774.A1 [12] = assay: Antiinflammatory activity against LPS-induced mouse J774.A1 cells assessed as inhibition of IL-6 release at 10 uM pretreated for 30 mins followed by LPS stimulation and measured after 24 hrs by ELISA relative to control; type: functional; conditions: time 24.5 hrs
J774.A1 [13] = assay: Cytotoxicity against mouse J774.A1 cells assessed as reduction in cell proliferation at 10 uM measured after 24 hrs by CCK-8 assay; type: toxicity, cell-based; conditions: j774.a1, 24 h
Mus musculus [14] = assay: Antiinflammatory activity against C57BL/6 mouse model of LPS induced acute lung injury assessed as reduction in TNF-alpha mRNA expression in lung at 20 mg/kg, po administered every 12 hrs for 3 times followed by LPS stimulation for 6 hrs starting from 30 mins post last dose by RT-qPCR analysis; type: functional, organism-based; conditions: time 42.5 hrs

With `CC(C)=CCc1c(OCCCCNCCN2CCOCC2)ccc2ccc(=O)oc12` the Activity (Mus musculus [1]) was “Active”, the Activity (Mus musculus [2]) was “Active” and the Activity [3] was “Non-Toxic”. The Activity (Mus musculus [4]) was “Active”, the Activity [5] was “Non-Toxic” and the Activity (Mus musculus [6]) was “Active”. For the same molecule, the inhibition [7] was 10.3%, the “Ratio IC50” value (RAW264.7 [8]) was 32 and the Activity (Mus musculus [9]) was “Active”. The “Ratio IC50” value (RAW264.7 [10]) was 3.8, the inhibition (J774.A1 [11]) was “Active” and the inhibition at 10 µM (J774.A1 [12]) was 95%. The Activity (J774.A1 [13]) was “Non-Toxic” and the Activity (Mus musculus [14]) was “Active”.
